The source of these data is patent publication US9561231B2 (AbbVie Inc., priority 2012, dated 2017).

Each structure is given as a SMILES string. Where two headings read alike, the source gives them in different places. A value given as a limit tells only on which side of the number the result lay.

For experiment [1], the target named is T1, second (BD2: amino acids E352-E168) bromodomain of BRD4 (Homo sapiens, UniProt O60885).
T1 construct: protocol
As to the kind of experiment: TR-FRET bromodomain binding assay, BRD4 BD2. To be noted: Ki calculated from IC50, probe Kd and probe concentration, read-out: TR-FRET Binding Ki: BRD4 (BDII_E352-M457). The gist of the method:
(§1)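 Displacement of an Alexa647-labelled BET-inhibitor from His-tagged BD1 (K57-E168) or BD2 ([…]) measured by TR-FRET in pH 6.0 sodium phosphate buffer with NaCl, EDTA, Triton X-100 and DTT.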

For experiment [2], the system named is breast cancer cell line MX-1. As to the kind of experiment: MX-1 cell line proliferation assay (3-day). The format is cell-based. To be noted: Homo sapiens, MX1, MX-1 cells, Cell Titer Glo, read-out: Cellular proliferation: EC50. A digest of the protocol:
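MX-1 cells in RPMI/10% FBS, plated 5000/well overnight, then exposed to compound at final 3 to 0.0001 μM (3-fold series) for 3 days at 37° C. Cell Titer Glo luminescence normalized to DMSO-treated cells; EC50 from sigmoidal curve fit.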

The target in experiment [3] is T2, first (BD1: amino acids K57-E168) bromodomain of BRD4 (Homo sapiens, UniProt O60885).
T2 construct: His-tagged first (BD1: amino acids K57-E168)
Nature of the experiment: TR-FRET bromodomain binding assay, BRD4 BD1. Conditions: Ki calculated from IC50, probe Kd and probe concentration, read-out: TR-FRET Binding Ki: BRD4 (BDI_K57-E168). A digest of the protocol: as §1

Setting [4] is: TR-FRET assay protocol (D, E or G) per compound.
Setting [5] is: TR-FRET assay protocol (A-G, compound concentration range).

For `CCS(=O)(=O)Nc1ccc(Oc2ccc(F)cc2F)c(-c2cn(C)c(=O)cc2-c2ccoc2)c1` [Example 393, N-{4-(2,4-difluorophenoxy)-3-[4-(furan-3-yl)-1-methyl-6-oxo-1,6-dihydropyridin-3-yl]phenyl}ethanesulfonamide], the Ki in experiment [1] (setting [4]) was 2.49 nM; in experiment [3] (setting [4]) it was 11.9 nM. Also, the EC50 in experiment [2] (72 hours with compound) stood at 70.7 nM.

Regarding `Cc1ccc(S(=O)(=O)Nc2ccc(Oc3ccccc3)c(-c3ccc(=O)n(C)n3)c2)cc1` [Example 11, 4-methyl-N-[3-(1-methyl-6-oxo-1,6-dihydropyridazin-3-yl)-4-phenoxyphenyl]benzenesulfonamide], the results for the inhibitory constant (Ki) in experiment [1] (setting [5]) and in experiment [3] (setting [5]) were 4370 nM and 4040 nM, respectively. In experiment [2] (72 h incubation), the EC50 is 9460 nM.

For the molecule `Cn1cc(-c2cc(NS(C)(=O)=O)ccc2OC2CCCC2)ccc1=O` [Example 248, N-[4-(cyclopentyloxy)-3-(1-methyl-6-oxo-1,6-dihydropyridin-3-yl)phenyl]methanesulfonamide], the inhibitory constant (Ki) in experiment [1] (setting [5]) was 4570 nM; in experiment [3] (setting [5]), 156 nM. The EC50 in experiment [2] (72 h incubation) is 488 nM.

For the molecule `CCS(=O)(=O)Nc1ccc(Oc2ccc(F)cc2F)c(-c2cn(C)c(=O)cc2NCC2CC2)c1` [Example 353, N-[3-{4-[(cyclopropylmethyl)amino]-1-methyl-6-oxo-1,6-dihydropyridin-3-yl}-4-(2,4-difluorophenoxy)phenyl]ethanesulfonamide], the Ki was 2.3 nM in experiment [1] (setting [5]) and 4.41 nM in experiment [3] (setting [5]). Also, the EC50 in experiment [2] (72 h incubation) is 56.9 nM.

In the case of `CC(=O)NCCc1ccc(-c2cc(=O)n(C)nc2-c2ccccc2Oc2ccccc2)cc1` [Example 100, N-(2-{4-[1-methyl-6-oxo-3-(2-phenoxyphenyl)-1,6-dihydropyridazin-4-yl]phenyl}ethyl)acetamide], the inhibition constant Ki was 72.2 nM in experiment [1] (setting [5]) and 143 nM in experiment [3] (setting [5]). Moreover, the EC50 in experiment [2] (72 h incubation) is greater than 3000 nM.

`Cn1cc(-c2cc(NS(=O)(=O)c3c[nH]cn3)ccc2Oc2ccccc2)ccc1=O` [Example 228, N-[3-(1-methyl-6-oxo-1,6-dihydropyridin-3-yl)-4-phenoxyphenyl]-1H-imidazole-4-sulfonamide]: the Ki in experiment [1] (setting [5]) is 154 nM; in experiment [3] (setting [5]), 142 nM. Moreover, the EC50 in experiment [2] (72 h incubation) was greater than 3000 nM.

Turning to `CC(=O)c1cc(=O)n(C)nc1-c1ccccc1Oc1ccccc1` [Example 221, 5-acetyl-2-methyl-6-(2-phenoxyphenyl)pyridazin-3(2H)-one], the figures for the inhibitory constant (Ki) in experiment [1] (setting [5]) and in experiment [3] (setting [5]) were 517 nM and 976 nM, respectively. Also, the EC50 in experiment [2] (72 h incubation) is 7200 nM.

Consider `CCS(=O)(=O)Nc1ccc(Oc2ccc(F)cc2F)c(-c2cn(C)c(=O)cc2OC2CCNCC2)c1` [Example 322, N-{4-(2,4-difluorophenoxy)-3-[1-methyl-6-oxo-4-(piperidin-4-yloxy)-1,6-dihydropyridin-3-yl]phenyl}ethanesulfonamide], for which the inhibitory constant (Ki) in experiment [1] (setting [5]) is 90.9 nM; in experiment [3] (setting [5]) it was 437 nM. Besides, in experiment [2] (72 h incubation), the EC50 was greater than 3000 nM.

As to `Cn1cc(-c2cc(NS(C)(=O)=O)ccc2Oc2ccc(F)cc2F)c(-c2ccc(CO)cc2)cc1=O` [Example 272, N-[4-(2,4-difluorophenoxy)-3-{4-[4-(hydroxymethyl)phenyl]-1-methyl-6-oxo-1,6-dihydropyridin-3-yl]phenyl}methanesulfonamide], the results for the Ki in experiment [1] (setting [5]) and in experiment [3] (setting [5]) were 4.62 nM and 16.9 nM, respectively. Also, in experiment [2] (72 h incubation), the EC50 was found to be 167 nM.

Turning to `Cn1cc(-c2cc(NS(C)(=O)=O)ccc2OC2CCCCC2)ccc1=O` [Example 247, N-[4-(cyclohexyloxy)-3-(1-methyl-6-oxo-1,6-dihydropyridin-3-yl)phenyl]methanesulfonamide], the Ki in experiment [1] (setting [5]) is 194 nM; in experiment [3] (setting [5]), 22.4 nM. For the same molecule, the EC50 in experiment [2] (72 h incubation) came to 425 nM.

Consider `CN1CCN(Cc2ccc(-c3cc(=O)n(C)cc3-c3cc(NS(C)(=O)=O)ccc3Oc3ccc(F)cc3F)cc2)CC1` [Example 273, N-[4-(2,4-difluorophenoxy)-3-(1-methyl-4-{4-[(4-methylpiperazin-1-yl)methyl]phenyl}-6-oxo-1,6-dihydropyridin-3-yl)phenyl]methanesulfonamide], for which the results for the Ki in experiment [1] (setting [5]) and in experiment [3] (setting [5]) were 2.45 nM and 4.58 nM, respectively. Moreover, the EC50 in experiment [2] (72 h incubation) amounted to 107 nM.
